Laboratory results as given in article PMC10035904, “Synthesis of novel sulphamethoxazole derivatives and exploration of their anticancer and antimicrobial properties” (PLOS ONE, 2023).
Read-outs that look alike come from different tables or passages of the source.

Columns and labels:
[1] = tested on: HF, PPC-1, and CaKi-1 cells; assay: MTT cell viability screen at 100 μM (cell line not given); type: cell-based, human; conditions: 72 h, cell line not stated
Experimental: The effect of synthesized compounds on cell viability was studied using 3-(4,5-dimethylthiazol-2-yl)-2,5-diphenyltetrazolium bromide (MTT; Sigma-Aldrich Co., St Louis, MO, USA) assay, as described elsewhere. Briefly, HF, PPC-1, and CaKi-1 cells were seeded in 96-well plates (Corning) in triplicates at a volume of 100 μL at a concentration of 4 × 10^3 cells/well. After 24 h of incubation, the cells were treated with 100 μM of tested compounds. After 72 h, the MTT reagent (at 0.5 mg/mL concentration) has been added to the wells, and cells were incubated for 4 h. Then the medium was aspirated, and the formed purple crystals were dissolved in 100 μL DMSO (Sigma-Aldrich Co.). The absorbance was measured at 570 and 630 nm using a multi-detection microplate reader. The compound effect on cell viability was calculated using a formula (1): Relativecellviability%=A−A0/ANC−A0 (1) Where: […]

[2] = tested on: Human foreskin fibroblasts (HF) CRL-4001; assay: MTT cell viability assay, fibroblasts HF; type: cell-based; conditions: Fibroblast, 72 hours of incubation, n = 3, read-out: EC50 against HF
Experimental: (§1) The human clear cell renal cell carcinoma line (CaKi-1) was obtained from American Type Culture Collection (ATCC, Manassas, VA). The human prostate carcinoma cell line PPC-1 was originally obtained from ATCC and kindly provided by Prof. Tambet Teesalu (University of Tartu, Estonia). Human foreskin fibroblasts (HF) CRL-4001 were originally obtained from ATCC and kindly provided by Prof. Helder Santos (University of Helsinki, Finland). Cells were cultured in Dulbecco’s Modified Eagle’s GlutaMAX medium (Gibco (Carlsbad, CA, USA) supplemented with 10,000 U/mL penicillin, 10 mg/mL streptomycin (Gibco), and 10% fetal bovine serum (Gibco). During cell passaging, Tryple Express reagent (Gibco) was used for cell detachment. Cell cultures were grown at 37°C in a humidified atmosphere containing 5% CO2. They were used until the passage of 20.
(§2) The effect of synthesized compounds on cell viability was studied using 3-(4,5-dimethylthiazol-2-yl)-2,5-diphenyltetrazolium bromide (MTT; Sigma-Aldrich Co., St Louis, MO, USA) assay, as described elsewhere. […] The absorbance was measured at 570 and 630 nm using a multi-detection microplate reader. The compound effect on cell viability was calculated using a formula (1): Relativecellviability%=A−A0/ANC−A0 (1) Where: […]

[3] = tested on: human prostate carcinoma cell line PPC-1; assay: MTT cell viability assay, PPC-1; type: cell-based; conditions: 72 hours of incubation, n = 3, read-out: EC50 against PPC-1
Experimental: as §1, §2

[4] = tested on: human clear cell renal cell carcinoma line (CaKi-1); assay: MTT cell viability assay, CaKi-1; type: cell-based; conditions: 72 hours of incubation, n = 3, read-out: EC50 against CaKi-1
Experimental: as §1, §2

[5] = tested on: CaKi-1 cells; conditions: cited from earlier work

Cc1cc(NS(=O)(=O)c2ccc(NCCC(=O)NN=Cc3cccc4ccccc34)cc2)no1 [Compound 15k, N-(5-methylisoxazol-3-yl)-4-((3-(2-(naphthalen-1-ylmethylene)hydrazineyl)-3-oxopropyl)amino)-benzenesulfonamide]
reduced cell viability up to about [1]: about 40%
EC50 [2]: > 100 µM
EC50 [3]: > 100 µM
EC50 [4]: > 100 µM
melting point: 206 to 207 °C

Cc1ccc(Nc2nccc(N(C)c3ccc4c(C)n(C)nc4c3)n2)cc1S(N)(=O)=O [pazopanib]
EC50 ([5]; after 72 hours of incubation, read-out: EC50 (renal cancer drugs, compared with CaKi-1 data)): 30 µM

CCN(CC)CCNC(=O)c1c(C)[nH]c(/C=C2\C(=O)Nc3ccc(F)cc32)c1C [sunitinib]
EC50 ([5]; read-out: EC50 against CaKi-1 cells): 2.2 µM
